For one experiment, the target named is T1, TNIK (Homo sapiens, UniProt Q9UKE5).
T1 construct: purchased Promega V4158
T1 sequence (Q9UKE5 1-367 limits assumed): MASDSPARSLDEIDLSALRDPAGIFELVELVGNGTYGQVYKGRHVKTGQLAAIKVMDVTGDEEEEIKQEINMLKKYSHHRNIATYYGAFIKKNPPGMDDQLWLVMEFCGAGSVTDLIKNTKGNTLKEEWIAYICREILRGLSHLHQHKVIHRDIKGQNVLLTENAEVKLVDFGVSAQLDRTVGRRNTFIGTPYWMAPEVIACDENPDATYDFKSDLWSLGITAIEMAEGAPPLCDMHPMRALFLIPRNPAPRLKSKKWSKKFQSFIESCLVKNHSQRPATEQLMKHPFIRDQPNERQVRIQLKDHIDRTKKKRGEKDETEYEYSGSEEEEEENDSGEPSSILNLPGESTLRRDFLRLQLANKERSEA
Kind of experiment: ADP-Glo Kinase Assay, inhibition activity on TNIK. The experiment is classed as biochemical.
Settings: not given
On the procedure:
The inhibition activities on TNIK, IKKε and TBK1 were measured by a luminometer, TNIK/IKKε/TBK1 Kinase Enzyme System (Promega, Ca# V4158; Invitrogen, PR8031B, Promega, Ca# V3991) and ADP-Glo Kinase Assay using ADP-Glo™ Kinase Analysis Kit (Promega, Ca# V9101) and a kinase reaction buffer [40 mM Tris(pH 7.5), 20 mM MgCl2, 0.1 mg/mL BSA] in accordance with the manufacturer's protocol.
On the technique in general: In ADP-Glo the light output rises with the ADP produced.
Regarding `Cc1nc2cccc(-c3ccc(NC(=O)c4ccc(F)cc4)c4c3CNC4=O)c2o1` [Example 194, 4-Fluoro-N-(7-(2-methylbenzo[d]oxazol-7-yl)-3-oxoisoindolin-4-yl)benzamide], the “TNIK (μM)” value is “Insoluble”.
The same measure, in the same setting: the same measure for `CN(C)c1cccc(C(=O)Nc2ccc(-c3ccccc3)c3c2C(=O)NC3)c1` [Example 95, 3-(Dimethylamino)-N-(3-oxo-7-phenylisoindolin-4-yl) benzamide]: “Insoluble”.

The same experiment, now with this note: read-out: TNIK.
Take `O=C(Nc1ccc(-c2ccccc2)c2c1C(=O)NC2)NC1CCCCC1` [Example 231, 1-Cyclohexyl-3-(3-oxo-7-phenylisoindolin-4-yl)urea]: the IC50 is > 20000 nM.
Still for that read-out and setting: the same measure for `COc1cccc(Nc2ccc(NC(=O)c3ccc(NCCCN4CCCCC4)cc3)c3c2CNC3=O)c1` [Example 448]: 620 nM; for `O=C(Nc1ccc(-c2cccc3ncoc23)c2c1C(=O)NC2)c1ccc(NCCN2CCCC2)cc1` [Example 376, N-(7-(benzo[d]oxazol-7-yl)-3-oxoisoindolin-4-yl)-4-((2-(pyrrolidin-1-yl)ethyl)amino)benzamide]: 72 nM; for `O=C(Nc1ccc(Nc2ccccc2Cl)c2c1C(=O)NC2)c1ccc(NCCN2CCCC2)cc1` [Example 453, N-(7-((2-chlorophenyl)amino)-3-oxoisoindolin-4-yl)-4-((2-(pyrrolidin-1-yl)ethyl)amino)benzamide]: 510 nM.
`O=C(Nc1ccc(Nc2cc(C(F)(F)F)cc(C(F)(F)F)c2)c2c1C(=O)NC2)c1ccc(NCCCN2CCCCC2)cc1` [Example 468, N-(7-((3,5-bis(trifluoromethyl)phenyl)amino)-3-oxoisoindolin-4-yl)-4-((3-(piperidin-1-yl)propyl)amino)benzamide]: the IC50 was 17100 nM.
Consider `O=C(Nc1ccc(-c2cc(F)ccc2F)c2c1C(=O)NC2)c1ccccc1` [Example 32, N-(7-(2,5-difluorophenyl)-3-oxoisoindolin-4-yl)benzamide], for which the IC50 was 1000 nM.
Consider `Cc1ccccc1Nc1ccc(NC(=O)c2ccc(NCCCN3CCCCC3)cc2)c2c1CNC2=O` [Example 483, N-(3-oxo-7-(o-tolylamino)isoindolin-4-yl)-4-((3-(piperidin-1-yl)propyl)amino)benzamide], for which the IC50 worked out at 250 nM.
As to `O=C(Nc1ccc(-c2ccccc2O)c2c1C(=O)NC2)c1ccc(NCCO)cc1` [Example 353, 4-((2-Hydroxyethyl)amino)-N-(7-(2-hydroxyphenyl)-3-oxoisoindolin-4-yl)benzamide], the IC50 is 370 nM.
`CSc1ccc(C(=O)Nc2ccc(-c3ccccc3)c3c2C(=O)NC3)cc1` [Example 131, 4-(Methylthio)-N-(3-oxo-7-phenylisoindolin-4-yl)benzamide]: the IC50 worked out at 2300 nM.
Turning to `O=C(Nc1ccc(-c2cccc3ncoc23)c2c1C(=O)NC2)c1ccc(NCCN2CCCCCC2)cc1` [Example 344, 4-((2-(Azepan-1-yl)ethyl)amino)-N-(7-(benzo[d]oxazol-7-yl)-3-oxoisoindolin-4-yl)benzamide], the IC50 amounted to 61 nM.
Turning to `Cc1ccc(C)c(-c2ccc(NC(=O)c3ccccc3)c3c2CNC3=O)c1` [Example 31, N-(7-(2,5-dimethylphenyl)-3-oxoisoindolin-4-yl)benzamide], the IC50 was 1600 nM.
Still for that read-out and setting: the same measure for `CN(C)CCCNc1ccc(C(=O)Nc2ccc(Nc3ccccc3)c3c2C(=O)NC3)cc1` [Example 460, 4-((3-(Dimethylamino)propyl)amino)-N-(3-oxo-7-(phenylamino)isoindolin-4-yl)benzamide]: 140 nM; for `COCCNc1ccc(C(=O)Nc2ccc(-c3cccc(OC)c3OC)c3c2C(=O)NC3)cc1` [Example 300, N-(7-(2,3-dimethoxyphenyl)-3-oxoisoindolin-4-yl)-4-((2-methoxyethyl)amino)benzamide]: 110 nM; for `COc1ccc(NC(=O)Nc2ccc(-c3ccccc3)c3c2C(=O)NC3)cc1` [Example 230, 1-(4-Methoxyphenyl)-3-(3-oxo-7-phenylisoindolin-4-yl)urea]: 900 nM.
The same measure, in the same setting: the same measure for `COc1cccc(-c2ccc(NC(=O)c3ccc(F)cc3)c3c2CCNC3=O)c1OC` [Example 400, N-(5-(2,3-dimethoxyphenyl)-1-oxo-1,2,3,4-tetrahydroisoquinolin-8-yl)-4-fluorobenzamide]: 8180 nM.
Turning to `O=C(Nc1ccc(Nc2ccccc2F)c2c1C(=O)NC2)c1ccccc1` [Example 413, N-(7-((2-fluorophenyl)amino)-3-oxoisoindolin-4-yl)benzamide], the IC50 is 500 nM.
The same measure, in the same setting: for `COc1cccc(-c2ccc(NC(=O)c3ccc(NCCCN(C)C)cc3)c3c2CNC3=O)c1OC` [Example 306, N-(7-(2,3-dimethoxyphenyl)-3-oxoisoindolin-4-yl)-4-((3-(dimethylamino)propyl)amino)benzamide] the value was 74 nM.
For the compound `O=C(Nc1ccccc1F)Nc1ccc(-c2ccccc2)c2c1C(=O)NC2` [Example 242, 1-(2-Fluorophenyl)-3-(3-oxo-7-phenylisoindolin-4-yl)urea], the IC50 turned out to be 2300 nM.
Regarding `O=C(Nc1ccc(-c2cccs2)c2c1C(=O)NC2)c1ccc(F)cc1` [Example 191, 4-Fluoro-N-(3-oxo-7-(thiophen-2-yl)isoindolin-4-yl)benzamide], the IC50 amounted to 13300 nM.
Same read-out and setting: for `O=C(Nc1ccc(-c2ccco2)c2c1C(=O)NC2)c1ccc(NCCN2CCCC2)cc1` [Example 287, N-(7-(furan-2-yl)-3-oxoisoindolin-4-yl)-4-((2-(pyrrolidin-1-yl)ethyl)amino)benzamide] the value was 660 nM; for `COc1cccc(Nc2ccc(NC(=O)c3ccc(NCCN4CCCCC4)cc3)c3c2CNC3=O)c1` [Example 446, N-(7-((3-methoxyphenyl)amino)-3-oxoisoindolin-4-yl)-4-((2-(piperidin-1-yl)ethyl)amino)benzamide], 630 nM.
Same read-out and setting: for `O=C(Nc1ccc(-c2ccco2)c2c1C(=O)NC2)c1ccc(NCCN2CCCCCC2)cc1` [Example 293, 4-((2-(Azepan-1-yl)ethyl)amino)-N-(7-(furan-2-yl)-3-oxoisoindolin-4-yl)benzamide] the value was 480 nM.
The same measure, in the same setting: the same measure for `COc1cccc(-c2ccc(NC(=O)c3ccc(NCCN)cc3)c3c2CNC3=O)c1OC` [Example 315, 4-((2-Aminoethyl)amino)-N-(7-(2,3-dimethoxyphenyl)-3-oxoisoindolin-4-yl)benzamide]: 37 nM; for `COc1cccc(-c2ccc(NC(=O)c3ccc(NCCN4CCCC4)cc3)c3c2CNC3=O)c1OC` [Example 299, N-(7-(2,3-dimethoxyphenyl)-3-oxoisoindolin-4-yl)-4-((2-(pyrrolidin-1-yl)ethyl)amino)benzamide]: 50 nM.
Take `O=C(Nc1ccc(Br)c2c1C(=O)NC2)c1ccc(NCCCN2CCCCC2)cc1` [Example 282, N-(7-bromo-3-oxoisoindolin-4-yl)-4-((3-(piperidin-1-yl)propyl)amino)benzamide]: the IC50 amounted to 1400 nM.
As for `O=C(Nc1ccc(-c2ccccc2)c2c1C(=O)NC2)c1ccc(NCCCN2CCOCC2)cc1` [Example 327, 4-((3-Morpholinopropyl)amino)-N-(3-oxo-7-phenylisoindolin-4-yl)benzamide], the IC50 is 700 nM.
Same read-out and setting: for `O=C(Nc1ccc(Nc2cc(C(F)(F)F)cc(C(F)(F)F)c2)c2c1C(=O)NC2)c1ccc(NCCN2CCCC2)cc1` [Example 465, N-(7-((3,5-bis(trifluoromethyl)phenyl)amino)-3-oxoisoindolin-4-yl)-4-((2-(pyrrolidin-1-yl)ethyl)amino)benzamide] the value was > 20000 nM.

These data come from patent publication US9856216B2, “Compounds as TNIK, IKKε and TBK1 inhibitors and pharmaceutical composition comprising same” (GREEN CROSS CORPORATION, priority 2015, dated 2018).
